Source: paper PMC10940605, “Design, synthesis and in vitro anticancer activity of some new lomefloxacin derivatives” (Scientific Reports, 2024)

Columns and labels:
Assay in all cases: NCI-60 SRB screen
Format in all cases: cell-based
786-0 = conditions: Homo sapiens; 786-0, 10^–5 Molar; read-out: Percent growth inhibition
How it was run: (§1)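 Single-dose screen at 10^−5 M; cells grown in RPMI 1640 with 2 mM L-glutamine and FBS for 24 h, then exposed to compound for 48 h at 37 °C, 5% CO2. TCA-fixed, SRB-stained, absorbance read at […]; percentage growth inhibition calculated against time-zero and control wells.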

NCI-H322M = conditions: Homo sapiens, 10^–5 Molar, read-out: Percent growth inhibition
How it was run: (§2)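 Testing used one 10^−5 M dose. Plates were incubated 48 h at 37 °C in 5% CO2 before fixation, staining with 0.4% (w/v) SRB in 1% acetic acid, solubilisation in trizma base and reading at […].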

OVCAR-8 = conditions: Homo sapiens; OVCAR-8, 10^–5 Molar; read-out: Percent growth inhibition
How it was run: as §2

SN12C = conditions: Homo sapiens, 10^–5 Molar, read-out: Percent growth inhibition
How it was run: as §1

KM12 = conditions: Homo sapiens; KM12, 10^–5 Molar; read-out: Percent growth inhibition
How it was run: as §1

EKVX = conditions: Homo sapiens, 10^–5 Molar, read-out: Percent growth inhibition
How it was run: as §2

IGROV1 = conditions: Homo sapiens, IGROV-1; IGROV1, 10^–5 Molar; read-out: Percent growth inhibition
How it was run: as §2

OVCAR-4 = conditions: Homo sapiens; OVCAR-4, 10^–5 Molar; read-out: Percent growth inhibition
How it was run: as §2

HCT-116 = conditions: Homo sapiens; HCT-116, 10^–5 Molar; read-out: Percent growth inhibition
How it was run: as §2

SNB-19 = conditions: Homo sapiens; SNB-19, 10^–5 Molar; read-out: Percent growth inhibition
How it was run: as §1

OVCAR-5 = conditions: Homo sapiens; OVCAR-5, 10^–5 Molar; read-out: Percent growth inhibition
How it was run: as §1

SW-620 = conditions: Homo sapiens; SW-620, 10^–5 Molar; read-out: Percent growth inhibition
How it was run: as §2

UO-31 = conditions: Homo sapiens; UO-31, 10^–5 Molar; read-out: Percent growth inhibition
How it was run: as §2

MDA-MB-231/ATCC = conditions: Homo sapiens, 10^–5 Molar, read-out: Percent growth inhibition
How it was run: as §1

HOP-62 = conditions: Homo sapiens; HOP-62, 10^–5 Molar; read-out: Percent growth inhibition
How it was run: as §2

NCI/ADR-RES = conditions: Homo sapiens, 10^–5 Molar, read-out: Percent growth inhibition
How it was run: as §1

ACHN = conditions: Homo sapiens, 10^–5 Molar, read-out: Percent growth inhibition
How it was run: as §1

HCC-2998 = conditions: Homo sapiens; HCC-2998, 10^–5 Molar; read-out: Percent growth inhibition
How it was run: as §2

NCI-H522 = conditions: Homo sapiens; NCI-H522, 10^–5 Molar; read-out: Percent growth inhibition
How it was run: as §2

HOP-92 = conditions: Homo sapiens; HOP-92, 10^–5 Molar; read-out: Percent growth inhibition
How it was run: as §2

MALME-3M = conditions: Homo sapiens, 10^–5 Molar, read-out: Percent growth inhibition
How it was run: as §1

U251 = conditions: Homo sapiens, U-251; U251, 10^–5 Molar; read-out: Percent growth inhibition
How it was run: as §2

MDA-MB-435 = conditions: Homo sapiens; MDA-MB-435, 10^–5 Molar; read-out: Percent growth inhibition
How it was run: as §1

melanoma SK-MEL-5 = conditions: Homo sapiens; SK-MEL-5, 10^–5 Molar; read-out: Percent growth inhibition
How it was run: as §1

M14 = conditions: Homo sapiens; M14, 10^–5 Molar; read-out: Percent growth inhibition
How it was run: as §2

Row | SMILES | inhibition at 10 µM (786-0) | inhibition at 10 µM (NCI-H322M) | inhibition at 10 µM (OVCAR-8) | inhibition at 10 µM (SN12C) | inhibition at 10 µM (KM12) | inhibition at 10 µM (IGROV1) | inhibition at 10 µM (OVCAR-4) | inhibition at 10 µM (HCT-116) | inhibition at 10 µM (SNB-19) | inhibition at 10 µM (OVCAR-5) | inhibition at 10 µM (UO-31) | inhibition at 10 µM (MDA-MB-231/ATCC) | inhibition at 10 µM (HOP-62) | inhibition at 10 µM (NCI/ADR-RES) | inhibition at 10 µM (ACHN) | inhibition at 10 µM (NCI-H522) | inhibition at 10 µM (HOP-92) | inhibition at 10 µM (MALME-3M) | inhibition at 10 µM (MDA-MB-435) | inhibition at 10 µM (melanoma SK-MEL-5) | other results
1 | CCn1cc(C(=O)NN=Cc2cccs2)c(=O)c2cc(F)c(N3CCNC(C)C3)c(F)c21 (stereo not shown) [Compound 3e, 1-Ethyl-6,8-difluoro-7-(3-methylpiperazin-1-yl)-4-oxo-N'-(thiophen-2-ylmethylene)-1,4-dihydroquinoline-3-carbohydrazide] | 32.2% | 15.9% | 56.2% | 30% | 16.5% | 33% | 23.8% | 5.52% | 27.1% | 32.8% | 33.2% | 59% | 27.6% | 32.1% | 12.8% | 28.9% | 46.2% | 137% | 7.77% | 30.2% | inhibition at 10 µM (EKVX): 65.9%; inhibition at 10 µM (SW-620): 117%; inhibition at 10 µM (HCC-2998): 71.4%; inhibition at 10 µM (U251): 46.7%; inhibition at 10 µM (M14): 50.6%
2 | CCn1cc(C(=O)NN=Cc2cccnc2)c(=O)c2cc(F)c(N3CCNC(C)C3)c(F)c21 (stereo not shown) [Compound 3d, 1-Ethyl-6,8-difluoro-7-(3-methylpiperazin-1-yl)-4-oxo-N'-(pyridin-3-ylmethylene)-1,4-dihydroquinoline-3-carbohydrazide] | 54.1% | 41.9% | 70% | 69.4% | 20.7% | 71.7% | 51.9% | 66.5% | 69.5% | 31.3% | 12.5% | 64.2% | 40.6% | 2.29% | 13.6% | 61.5% | 74.2% | 40% | 49% | 34.8% | inhibition at 10 µM (EKVX): 37.2%; inhibition at 10 µM (SW-620): 73.9%; inhibition at 10 µM (HCC-2998): 50.4%; inhibition at 10 µM (U251): 74.6%; inhibition at 10 µM (M14): 10.3%
3 | CCn1cc(C(=O)O)c(=O)c2cc(F)c(N3CCN(C(=O)c4ccccc4)C(C)C3)c(F)c21 (stereo not shown) [Compound 7a, 7-(4-Benzoyl-3-methylpiperazin-1-yl)-1-ethyl-6,8-difluoro-4-oxo-1,4-dihydroquinoline-3-carboxylic acid] | 14.7% | 14.4% | 4.61% | – | 1.89% | 3.14% | 20.5% | – | – | 5.65% | 28.5% | 16.6% | 4.44% | 20.4% | 5.78% | 9.08% | 31.8% | 4.96% | 4.07% | 6.55% | inhibition at 10 µM (EKVX): 1.21%; inhibition at 10 µM (HCC-2998): 5.26%; inhibition at 10 µM (U251): 2.73%; inhibition at 10 µM (M14): 9.98%
4 | CCn1cc(C(=O)O)c(=O)c2cc(F)c(N3CCN(CC(=O)Nc4ccccc4)C(C)C3)c(F)c21 (stereo not shown) [Compound 5a, 1-Ethyl-6,8-difluoro-7-(3-methyl-4-(2-oxo-2-(phenylamino)ethyl)piperazin-1-yl)-4-oxo-1,4-dihydroquinoline-3-carboxylic acid] | 7.47% | 14.3% | 1.7% | – | 0.07% | – | 17.6% | 0.13% | 0.85% | 1.71% | 23.5% | 12.9% | – | 3.34% | 2.19% | 7.5% | 2.95% | 2.09% | 2.9% | 0.76% | inhibition at 10 µM (HCC-2998): 0.15%
5 | CCn1cc(C(=O)O)c(=O)c2cc(F)c(N3CCN(CC(=O)Nc4ccc(Cl)cc4)C(C)C3)c(F)c21 (stereo not shown) [Compound 5b, 7-(4-(2-((4-Chlorophenyl)amino)-2-oxoethyl)-3-methylpiperazin-1-yl)-1-ethyl-6,8-difluoro-4-oxo-1,4-dihydroquinoline-3-carboxylic acid] | – | 13.8% | 7.15% | 2.23% | 3.94% | 0.82% | 22.2% | 0.67% | 1.6% | – | 31.4% | 15.7% | – | 8.06% | 14% | 8.89% | 9.45% | 4.32% | 5.85% | 16.1% | inhibition at 10 µM (EKVX): 3.04%; inhibition at 10 µM (SW-620): 1.08%; inhibition at 10 µM (M14): 2.06%
6 | CCn1cc(C(=O)O)c(=O)c2cc(F)c(N3CCN(C(=O)c4ccc(Br)cc4)C(C)C3)c(F)c21 (stereo not shown) [Compound 7b, 7-(4-(4-Bromobenzoyl)-3-methylpiperazin-1-yl)-1-ethyl-6,8-difluoro-4-oxo-1,4-dihydroquinoline-3-carboxylic acid] | 0.58% | 5.64% | – | 1.45% | 3.51% | 5.97% | 16.9% | – | 4.45% | 2.96% | 21.4% | 13.3% | 5.56% | 9.07% | 2.27% | 10% | – | – | 3.15% | 1.22% | inhibition at 10 µM (SW-620): 0%
7 | CCn1cc(C(=O)O)c(=O)c2cc(F)c(N3CCN(C(=O)c4ccc([N+](=O)[O-])cc4)C(C)C3)c(F)c21 (stereo not shown) [Compound 7d, 1-Ethyl-6,8-difluoro-7-(3-methyl-4-(4-nitrobenzoyl)piperazin-1-yl)-4-oxo-1,4-dihydroquinoline-3-carboxylic acid] | 0.6% | 12.7% | – | 0.88% | 1.24% | – | 8.82% | 2.1% | 3.31% | 9.27% | 27.2% | 8.63% | 7.44% | 3.34% | 2.14% | 0.62% | 0.34% | 0.88% | – | 0.86% | –
8 | CCn1cc(C(=O)O)c(=O)c2cc(F)c(N3CCN(C(=O)c4ccc(Cl)cc4)C(C)C3)c(F)c21 (stereo not shown) [Compound 7c, 7-(4-(4-Chlorobenzoyl)-3-methylpiperazin-1-yl)-1-ethyl-6,8-difluoro-4-oxo-1,4-dihydroquinoline-3-carboxylic acid] | – | 7.81% | – | 3.15% | 0.72% | 1.62% | 18.9% | 0.17% | 6.42% | 2.81% | 23.9% | 14.3% | 2.13% | 13.8% | 4.45% | 9.51% | – | 1.6% | 6.54% | 2.21% | –
